The IC50 is the concentration needed to halve the response being measured.

Assay [1] can be described thus: Anticancer activity against Homo sapiens (human) NCI lung cancer cell assessed as inhibition of cell proliferation after 24 hr by MTT assay. The assay is classed as functional, cell-based. Particulars: Cancer cell lines. On the technique in general: Tetrazolium assays rely on reduction of a dye to a coloured formazan, in cell work by metabolically active cells.
For a further assay, the system named is MCF7. Nature of the assay: Anticancer activity against Homo sapiens (human) MCF7 cells assessed as inhibition of cell proliferation after 24 hr by MTT assay. It is filed as functional, cell-based. Conditions: MCF7, 24 h.
In another assay the test system is HEK293. Briefly: Cytotoxicity against Homo sapiens (human) HEK293 cells assessed as inhibition of cell proliferation after 24 hr by MTT assay. It is filed as cell-based. Conditions: HEK293, 24 h.

In the case of `CN1CCN(c2nc(-c3ccccc3)c(-c3nc4ccccc4c(=O)n3-c3ccccc3)s2)CC1`, the IC50 came out at 9890 nM in assay [1], 5840 nM with MCF7 and 860 nM with HEK293.

On to `O=C(c1ccccc1)N1CCN(c2nc(-c3ccccc3)c(-c3nc4ccccc4c(=O)n3-c3ccccc3)s2)CC1`, for which the results for the IC50 (in assay [1]; with MCF7; in the assay with HEK293) were 13400 nM, 19900 nM and 420 nM, respectively.

Consider `O=c1c2ccccc2nc(-c2sc(N3CCNCC3)nc2-c2ccccc2)n1-c1ccccc1`, for which the IC50 amounted to 2660 nM in assay [1], 46700 nM in the assay on MCF7 and 740 nM with HEK293.

Take `CN1CCN(c2nc(-c3ccccc3)c(-c3nc4ccccc4c(=O)n3Nc3ccccc3)s2)CC1`: the IC50 in assay [1] was 1110 nM; in the assay on MCF7, 160 nM; in the assay with HEK293, 3030 nM.

In the case of `O=C(c1ccccc1)N1CCN(c2nc(-c3ccccc3)c(-c3nc4ccccc4c(=O)n3Nc3ccccc3)s2)CC1`, the IC50 in assay [1] amounted to 5590 nM; with MCF7, 2490 nM; in the assay with HEK293, 800 nM.

Regarding `COc1ccc(Nn2c(-c3sc(N4CCNCC4)nc3-c3ccccc3)nc3ccccc3c2=O)cc1`, the values for the IC50 (in assay [1]; in the assay with MCF7; in the assay with HEK293) were 2920 nM, 11400 nM and 1110 nM, respectively.

On to `O=C(c1ccccc1)N1CCN(c2nc(-c3ccccc3)c(-c3nc4ccccc4c(=O)n3-c3ccc(Cl)cc3)s2)CC1`, for which the IC50 in assay [1] is 15600 nM; in the assay on MCF7, more than 100000 nM; in the assay on HEK293 it was 690 nM.

For `CN1CCN(c2nc(-c3ccccc3)c(-c3nc4ccccc4c(=O)n3-c3ccc(Cl)cc3)s2)CC1`, the figures for the IC50 (in assay [1]; with MCF7; in the assay with HEK293) were more than 100000 nM, 1970 nM and 940 nM, respectively.

For `O=c1c2ccccc2nc(-c2sc(N3CCNCC3)nc2-c2ccccc2)n1-c1ccc(Cl)cc1`, the IC50 in assay [1] is 6100 nM; in the assay with MCF7 it was more than 100000 nM; with HEK293 it was 14400 nM.

Consider `COc1ccccc1-n1c(-c2sc(N3CCN(C)CC3)nc2-c2ccccc2)nc2ccccc2c1=O`, for which the concentration for half-maximal inhibition (IC50) was 9430 nM in assay [1], 1500 nM with MCF7 and 670 nM in the assay with HEK293.

As to `COc1ccccc1-n1c(-c2sc(N3CCNCC3)nc2-c2ccccc2)nc2ccccc2c1=O`, the values for the IC50 (in assay [1]; in the assay with MCF7; in the assay on HEK293) were 4330 nM, 3700 nM and 550 nM, respectively.

For `COc1ccccc1-n1c(-c2sc(N3CCN(C(=O)c4ccccc4)CC3)nc2-c2ccccc2)nc2ccccc2c1=O`, the IC50 was determined as 5930 nM in assay [1], 660 nM in the assay with MCF7 and 2290 nM in the assay with HEK293.

Take `CN1CCN(c2nc(-c3ccccc3)c(-c3nc4ccccc4c(=O)n3-c3ccccc3[N+](=O)[O-])s2)CC1`: the values for the IC50 (in assay [1]; in the assay with MCF7; with HEK293) were 6720 nM, 8900 nM and 810 nM, respectively.

In the case of `O=c1c2ccccc2nc(-c2sc(N3CCNCC3)nc2-c2ccccc2)n1-c1ccccc1[N+](=O)[O-]`, the IC50 in assay [1] worked out at 8390 nM; in the assay with MCF7, 5860 nM; in the assay with HEK293, 1070 nM.

For the molecule `O=C(c1ccccc1)N1CCN(c2nc(-c3ccccc3)c(-c3nc4ccccc4c(=O)n3-c3ccccc3[N+](=O)[O-])s2)CC1`, the IC50 in assay [1] is 11000 nM; with MCF7, 6490 nM; in the assay on HEK293, 730 nM.

Consider `O=c1[nH]cc(F)c(=O)[nH]1` [FLUOROURACIL], for which the IC50 in assay [1] amounted to 2300 nM; in the assay with MCF7, 1250 nM; in the assay with HEK293 it was 2150 nM.

As to `CN(Cc1cnc2nc(N)nc(N)c2n1)c1ccc(C(=O)N[C@@H](CCC(=O)O)C(=O)O)cc1` [METHOTREXATE], the IC50 in assay [1] worked out at 2200 nM; in the assay on MCF7 it was 2260 nM; in the assay on HEK293, 1270 nM.
